# From patent US7767210B2, “RNA virus vaccines and methods” (priority 2005, dated 2010)
# pIC50: −log10 of the molar value.
# Key:
# [1] = system: WNV strain OK02; experiment: Safety of MB-treated WNV in immunocompetent mice (i.p. injection, survival); format: in vivo, BalbC/j mice; settings: virus treated with MB+light, doses of 10^3 and 10^4 pfu per animal
# [2] = system: WNV; experiment: Safety of MB-treated WNV in immunodeficient mice (i.p. injection, survival); format: in vivo, C.B. 17-SCID mice; settings: 20 μM MB; conclusion from BalbC/j and SCID mice
# [3] = cited from earlier work
# [4] = system: NY-99 strain of WNV; experiment: MB + light inactivation of WNV, plaque assay on Vero cells; format: cell-based, West Nile Virus; settings: MB above 2 μM and light; data not shown; stated as 'held true' for this strain
# Method: (§1) MB inactivation of West Nile Virus. 1 ml aliquots of WNV at a concentration of 10^7 pfu were mixed with MB (SIGMA INC.) to achieve the desired final concentration of MB in the reaction mixture. Mixtures were incubated for 20 minutes in the dark at room temperature and then subsequently for 10 minutes at 10 cm distance from a 40 watt fluorescent white culture hood light at room temperature. Samples were then diluted to the desired concentration of WNV for plaque assay. Inactivated virus was prepared fresh for each assay and never kept for longer than 2 hours at 4° C. before use. It is contemplated that other RNA viruses as described herein can be similarly treated for vaccine formation.
# (§2) Plaque Assays. Five-fold serial dilutions of WNV strains either mock-treated or treated with MB were placed onto Vero cell monolayers cultured in either 6-well plates or T25 culture flasks (GREINER INC.). Virus aliquots were allowed to attach to the cells for 1 hour at normal cell culture conditions. After one hour the virus was aspirated from the cells. The monolayers were washed twice with phosphate-buffer saline (PBS) and overlayed with 2 ml or 5 ml (6-well or T25, respectively) of 1% methylcellulose (SIGMA INC.) medium supplemented with 2% calf serum. Cells were incubated for 5 days. Afterwards the methylcellulose was removed, the monolayers were washed once with PBS and fixed with 100% ice-cold methanol for 5 minutes. The monolayers were subsequently stained with 0.5% Giemsa stain (SIGMA INC.) and plaques counted using a MZ12 dissecting microscope (LEICA INC., Germany).
# (§3) As a member of the Flaviviridae family of viruses, WNV utilizes a RNA dependent RNA polymerase for replication. This process is relatively error prone and can lead to the creation of multiple strains. To test the ability of MB to inactivate multiple WNV strains, MB was tested against multiple strains of WNV, including OK02, OK03 and NY-99 (the 1999 prototype virus NY-99 and the more recent Oklahoma isolates from 2002 and 2003). 5×10^3 pfu of OK03 WNV was incubated with 2 μM MB and light. […]
# [5] = system: OK03 strain of WNV; experiment: as above; format: cell-based, West Nile Virus; settings: MB above 2 μM and light; FIG. 2 panel B; stated as 'held true' for this strain
# Method: as §1, §2, §3
# [6] = system: OK02 strain of WNV; experiment: as above; format: cell-based, West Nile Virus; settings: MB above 2 μM and light; FIG. 2 panel A
# Method: as §1, §2, §3
# [7] = system: WNV; experiment: MB photoinactivation of WNV in tissue culture (strain not stated); format: cell-based, West Nile Virus
# Method: as §1
# as §2, with “Cells were incubated for 5 days. Afterwards the methylcellulose was removed, the monolayers were washed once with PBS and fixed with 100% ice-cold methanol for 5 minutes.” left out
structure (smiles),measurement,setting,value
"CN(C)c1ccc2nc3ccc(N(C)C)cc3[s+]c2c1.[Cl-] [MB, 3,7-Bis(dimethylamino)phenothiazin-5-ium chloride]",WNV-associated morbidity and mortality,[1],completely block-associated morbidity and mortality
same,effect on WNV-associated morbidity and mortality in vivo,[2],can stop WNV-associated morbidity and mortality
same,oral absorption,[3]; DiSanto and Wagner 1972,absorbed orally
same,concentration in blood,"[3]; oral 100 mg/kg twice daily (Naylor et al., 1986)",~50 µM
same,half-life,[3]; oral (DiSanto and Wagner 1972),about 10 h
same,side effects on long-term oral use,"[3]; oral, up to 19 months at 100 mg/kg twice daily (Naylor et al., 1986)",no reported side effects
same,reduction of viral activity,[4],≥ 10^3
same,reduction of viral activity,[5],≥ 10^3
same,reduction of viral activity,[6],≥ 10^3
same,reduction of virus titer,[7]; 20 μM MB + light,10^7 pfu
same,pIC50,"[7]; West Nile virus, MB + light, tissue culture, read-out: IC50 of MB+light inactivation of WNV",7.00
